The target in one data set is T1, papain (Carica papaya, UniProt P00784).
T1 construct: purchased Sigma Chem. Co
T1 sequence (P00784 134-345): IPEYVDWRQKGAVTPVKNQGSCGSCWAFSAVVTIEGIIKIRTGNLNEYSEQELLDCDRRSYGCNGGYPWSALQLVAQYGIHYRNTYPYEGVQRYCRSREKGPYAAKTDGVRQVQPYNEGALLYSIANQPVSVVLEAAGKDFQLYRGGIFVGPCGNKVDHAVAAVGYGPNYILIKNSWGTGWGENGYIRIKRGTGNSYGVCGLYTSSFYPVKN
Briefly: Papain inhibitory activity (milk casein digestion). The format is biochemical. The note with it: papain 80 μg/ml 0.5 ml, cysteine, pH 6.8, 1% milk casein, 40° C., 10 minutes. The procedure, abridged: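 Papain (80 μg/ml stock) preincubated 15 min at 40 °C with inhibitor, cysteine/EDTA activator and phosphate buffer pH 6.8. Then 1% milk casein digested 10 min at 40 °C, stopped with trichloroacetic acid and filtered; filtrate absorbance at 280 nm gives percent inhibition versus no-inhibitor control.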

Data set [1] concerns adjuvant induced polyarthritis. Nature of the data set: Inhibition of adjuvant induced polyarthritis in rats (hind paw volume). The format is in vivo, Sprague Dawley rat. The following applies: Rattus norvegicus. The procedure: Effect of the compounds of this invention on the development of adjuvant-induced polyarthritis in rats was assayed as follows: Adjuvant arthritis was produced by a single intracutaneous injection of 0.1 ml of the adjuvant mixture containing heat-killed mycobacteria of the human Aoyama B strain suspended in liquid paraffin in 0.6% in the middle part of the distal tail of Sprague Dawley rat (female, 8 weeks old). […] The activity was measured as the mean inhibition percent for the increase of the hind paw volume of the 8 rats/group on the days 17 and 23 on which the legs become inflamed and reach maximum volumes. The compound Nos. in Table 2 are as defined in Examples as described hereinafter.

A further data set has as its system thiol proteases. The note with it: U.S. Pat. No. 3,911,111; cited from earlier work.
For data set [2] the following is noted: prior art compound; cited from earlier work.
The conditions of data set [3]: U.S. Pat. No. 3,911,111; cited from earlier work.
Where [4] appears, read: 408 h, 100 mg/kg of body weight, daily oral, day 17, read-out: Inhibition % 17 days (increase of hind paw volume).
Where [5] appears, read: 552 h, 100 mg/kg of body weight, daily oral, day 23, read-out: Inhibition % 23 days (increase of hind paw volume).
The mark [6] stands for this setting: po, 408 h, read-out: Inhibition % 17 days (increase of hind paw volume).
The mark [7] stands for this setting: po, 552 h, read-out: Inhibition % 23 days (increase of hind paw volume).

Where two headings read alike, the source gives them in different places.

Consider `O=C(OCc1cccc2ccccc12)[C@@H]1O[C@H]1C(=O)OCc1cccc2ccccc12` (relative stereo) [EP-81, di-1'-naphthylmethyl epoxysuccinate], for which, on papain, the “ID50 (amount of inhibitor for 50% inhibition)” value is 1.30 γ. Besides, the values for the inhibition in vivo at 100 mg/kg in data set [1] (setting [4]) and in data set [1] (setting [5]) were 64.3% and 83.6%, respectively.
For the compound `COc1ccc(COC(=O)[C@@H]2O[C@H]2C(=O)O)cc1` (relative stereo) [EP-102, p-methoxybenzyl potassium epoxysuccinate], at papain, the “ID50 (amount of inhibitor for 50% inhibition)” value is given as 0.36 γ. The inhibition in vivo at 100 mg/kg in data set [1] (setting [4]) came out at 28%; in data set [1] (setting [5]), 31%.
For `O=C(O)[C@H]1O[C@@H]1C(=O)OCc1ccc(Cl)cc1` (relative stereo) [EP-116, p-chlorobenzyl potassium epoxysuccinate], the “ID50 (amount of inhibitor for 50% inhibition)” value on papain is 0.32 γ. The values for the inhibition in vivo at 100 mg/kg in data set [1] (setting [4]) and in data set [1] (setting [5]) were 35% and 33.5%, respectively.
Consider `O=C(OCc1cccc(F)c1)[C@H]1O[C@@H]1C(=O)OCc1cccc(F)c1` (relative stereo) [EP-121, di-m-fluorobenzyl epoxysuccinate], for which, on papain, the “ID50 (amount of inhibitor for 50% inhibition)” value is given as 0.46 γ. For the same compound, the inhibition in vivo at 100 mg/kg in data set [1] (setting [4]) is 53.6%; in data set [1] (setting [5]) it was 38.9%.
In the same order, the values of `O=C(OCCCc1ccccc1)[C@H]1O[C@@H]1C(=O)OCCCc1ccccc1` (relative stereo) [EP-131, di-3'-phenylpropyl epoxysuccinate] are 11.36 γ, 57.1% and 49.2%.
For `CCOC(=O)[C@H]1O[C@@H]1C(=O)O` (relative stereo) [EP-137, ethyl potassium epoxysuccinate], in that order: 2.08 γ, 40% and 38.5%.
Consider `O=C(O)[C@H]1O[C@@H]1C(=O)OCc1ccccc1` (relative stereo) [EP-143, benzyl potassium epoxysuccinate], for which the “ID50 (amount of inhibitor for 50% inhibition)” value on papain is 0.15 γ. The results for the inhibition in vivo at 100 mg/kg in data set [1] (setting [4]) and in data set [1] (setting [5]) were 45.1% and 35.6%, respectively.
As to `CCCCCOC(=O)[C@H]1O[C@@H]1C(=O)O` (relative stereo) [EP-144, n-amyl potassium epoxysuccinate], at papain, the “ID50 (amount of inhibitor for 50% inhibition)” value is 0.34 γ. Moreover, the inhibition in vivo at 100 mg/kg in data set [1] (setting [4]) amounted to 33.3%; in data set [1] (setting [5]), 32.1%.
For the compound `CC(C)C[C@H](NC(=O)[C@H]1O[C@@H]1C(=O)O)C(=O)NCCCCN=C(N)N` [E-64], the “thiol protease inhibitory activity” value with thiol proteases is on record as “possessing thiol protease inhibitory activity”. Besides, in data set [2], the “acceleration of vascular permeability (side effect)” value is “acceleration of vascular permeability”. For the same compound, in data set [3], the anti-inflammatory activity result is recorded as “anti-inflammatory activity”.
On to `CC(C)C[C@H](NC(=O)C1OC1C(=O)[O-])C(=O)[O-].[K+].[K+]` (stereo partly drawn) [EP-174, N-(3-carboxyoxirane-2-carbonyl)-L-leucine dipotassium salt], for which, at papain, the “ID50 (amount of inhibitor for 50% inhibition)” value is listed as 0.20 γ. For the same compound, the inhibition in vivo at 100 mg/kg in data set [1] (setting [6]) worked out at 30.5%; in data set [1] (setting [7]) it was 29%.
For the compound `O=C([O-])C1OC1C(=O)N[C@@H](Cc1ccccc1)C(=O)[O-].[K+].[K+]` (stereo partly drawn) [EP-175, N-(3-carboxyoxirane-2-carbonyl)-L-phenylalanine dipotassium salt], the “ID50 (amount of inhibitor for 50% inhibition)” value on papain was 1.90 γ. The inhibition in vivo at 100 mg/kg in data set [1] (setting [6]) stood at 32%; in data set [1] (setting [7]), 31.5%.

Values taken from patent US4393228A, “Epoxysuccinic acid derivatives” (Taisho Pharmaceutical Co., Ltd., priority 1977, dated 1983).
